Data on 22 compounds can be found in patent US12686673B2 (Blueprint Medicines Corporation, priority 2020, dated 2026).

Format in all cases: cell-based
Assay [1] has as its target EGFR (A767_dupASV) expressing Ba/F3 stable cell line (Homo sapiens, UniProt P00533, DUP767-769, cells depend on it). As to the kind of experiment: Cellular proliferation (Alamar Blue) assay, EGFR A767_dupASV Ba/F3. The conditions noted are these: 72 hr, read-out: A767 IC50. On the procedure:
(§1) • 1. EGFR(D770_N771insSVD) expressing Ba/F3 stable cell line • 2. EGFR (A767_dupASV) expressing Ba/F3 stable cell line • 3. A431 cells • 4. EGFR (H773insNPH) expressing Ba/F3 stable cell line • 5. HER2 (A775_G776insYVMA) expressing Ba/F3 stable cell line Assay Procedure: • 1. Seed cells at 5000 for A431 and 15,000 cells for Ba/F3 in 100 μL/well in complete media (for A431: DMEM with […] and for Ba/F3 cells: RPMI with 10% FBS) in 96-well tissue culture plate. Leave outer wells without cells for background measurements. Incubate at 37 degree Celsius in […] humidified incubator for 16-18 hours. • 2. Add 0.025 ml of 5× concentration compound dilution or DMSO control. Final compound concentration range is 10-0.0005 μM prepared in 3-fold serial dilutions. Incubate for 72 hr at 37 degree Celsius in […] humidified incubator. • 3. Add 0.0125 ml Alamar Blue™ reagent to each well with multi-channel pipette and tap gently on each side of the plate to mix. Incubate for 3 hours at 37 degree Celsius in 5% CO2 humidified incubator. • 4. […] Data analysis was performed using XLfit 5.5.0.5.

Assay [2] deals with A431 cells. As to the kind of experiment: Cellular proliferation (Alamar Blue) assay, A431. The protocol:
as §1

Assay [3] deals with EGFR(D770_N771insSVD) expressing Ba/F3 stable cell line (Homo sapiens, UniProt P00533, DUP768-770, cells depend on it). As to the kind of experiment: Cellular proliferation (Alamar Blue) assay, EGFR D770_N771insSVD Ba/F3. To be noted: 72 hr, read-out: D770 IC50. On the procedure: as §1
[4] abbreviates: Homo sapiens, A-431; A431 cells, Alamar Blue, 72 hr; read-out: A431 IC50.
The mark [5] stands for this setting: Homo sapiens, A-431; A431 cells, 72 hr, Alamar Blue; read-out: A431 IC50.

Molecules are shown by their SMILES. Read-outs that look alike come from different tables or passages of the source. Bounds are passed on as bounds.

Chain of EGFR (A767_dupASV) expressing Ba/F3 stable cell line (P00533 with tags, fused parts or gaps DUP767-769): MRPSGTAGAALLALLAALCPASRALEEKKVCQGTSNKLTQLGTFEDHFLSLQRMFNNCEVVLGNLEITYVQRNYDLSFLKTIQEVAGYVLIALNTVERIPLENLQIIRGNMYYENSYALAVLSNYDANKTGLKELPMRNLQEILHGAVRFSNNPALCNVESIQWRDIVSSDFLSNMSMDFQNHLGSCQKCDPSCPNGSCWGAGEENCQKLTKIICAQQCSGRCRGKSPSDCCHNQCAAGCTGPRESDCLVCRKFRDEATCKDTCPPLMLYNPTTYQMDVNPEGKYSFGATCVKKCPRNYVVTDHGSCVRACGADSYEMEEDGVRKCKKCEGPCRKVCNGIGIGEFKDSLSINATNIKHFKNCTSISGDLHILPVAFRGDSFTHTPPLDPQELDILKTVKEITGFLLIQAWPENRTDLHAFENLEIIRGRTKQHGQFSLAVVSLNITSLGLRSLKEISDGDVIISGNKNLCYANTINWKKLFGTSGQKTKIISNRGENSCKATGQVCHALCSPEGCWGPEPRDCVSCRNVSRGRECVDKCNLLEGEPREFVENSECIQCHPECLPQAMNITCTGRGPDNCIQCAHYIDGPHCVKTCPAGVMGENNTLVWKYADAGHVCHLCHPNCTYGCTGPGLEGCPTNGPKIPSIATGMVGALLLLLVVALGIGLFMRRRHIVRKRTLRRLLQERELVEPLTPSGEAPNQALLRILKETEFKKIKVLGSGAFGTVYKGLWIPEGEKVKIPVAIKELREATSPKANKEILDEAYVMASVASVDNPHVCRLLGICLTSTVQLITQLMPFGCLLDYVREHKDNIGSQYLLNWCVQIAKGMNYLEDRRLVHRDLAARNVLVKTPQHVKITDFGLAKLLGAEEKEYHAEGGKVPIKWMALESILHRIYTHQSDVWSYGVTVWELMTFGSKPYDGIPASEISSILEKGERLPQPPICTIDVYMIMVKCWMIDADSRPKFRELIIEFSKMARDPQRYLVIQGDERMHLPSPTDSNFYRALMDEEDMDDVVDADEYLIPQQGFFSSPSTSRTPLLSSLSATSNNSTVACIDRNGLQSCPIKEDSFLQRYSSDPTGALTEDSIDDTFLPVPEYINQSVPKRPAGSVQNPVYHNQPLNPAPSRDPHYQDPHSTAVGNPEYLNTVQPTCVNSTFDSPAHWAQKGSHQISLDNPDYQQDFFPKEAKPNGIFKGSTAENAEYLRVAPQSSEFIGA
Chain of EGFR(D770_N771insSVD) expressing Ba/F3 stable cell line (P00533 with tags, fused parts or gaps DUP768-770): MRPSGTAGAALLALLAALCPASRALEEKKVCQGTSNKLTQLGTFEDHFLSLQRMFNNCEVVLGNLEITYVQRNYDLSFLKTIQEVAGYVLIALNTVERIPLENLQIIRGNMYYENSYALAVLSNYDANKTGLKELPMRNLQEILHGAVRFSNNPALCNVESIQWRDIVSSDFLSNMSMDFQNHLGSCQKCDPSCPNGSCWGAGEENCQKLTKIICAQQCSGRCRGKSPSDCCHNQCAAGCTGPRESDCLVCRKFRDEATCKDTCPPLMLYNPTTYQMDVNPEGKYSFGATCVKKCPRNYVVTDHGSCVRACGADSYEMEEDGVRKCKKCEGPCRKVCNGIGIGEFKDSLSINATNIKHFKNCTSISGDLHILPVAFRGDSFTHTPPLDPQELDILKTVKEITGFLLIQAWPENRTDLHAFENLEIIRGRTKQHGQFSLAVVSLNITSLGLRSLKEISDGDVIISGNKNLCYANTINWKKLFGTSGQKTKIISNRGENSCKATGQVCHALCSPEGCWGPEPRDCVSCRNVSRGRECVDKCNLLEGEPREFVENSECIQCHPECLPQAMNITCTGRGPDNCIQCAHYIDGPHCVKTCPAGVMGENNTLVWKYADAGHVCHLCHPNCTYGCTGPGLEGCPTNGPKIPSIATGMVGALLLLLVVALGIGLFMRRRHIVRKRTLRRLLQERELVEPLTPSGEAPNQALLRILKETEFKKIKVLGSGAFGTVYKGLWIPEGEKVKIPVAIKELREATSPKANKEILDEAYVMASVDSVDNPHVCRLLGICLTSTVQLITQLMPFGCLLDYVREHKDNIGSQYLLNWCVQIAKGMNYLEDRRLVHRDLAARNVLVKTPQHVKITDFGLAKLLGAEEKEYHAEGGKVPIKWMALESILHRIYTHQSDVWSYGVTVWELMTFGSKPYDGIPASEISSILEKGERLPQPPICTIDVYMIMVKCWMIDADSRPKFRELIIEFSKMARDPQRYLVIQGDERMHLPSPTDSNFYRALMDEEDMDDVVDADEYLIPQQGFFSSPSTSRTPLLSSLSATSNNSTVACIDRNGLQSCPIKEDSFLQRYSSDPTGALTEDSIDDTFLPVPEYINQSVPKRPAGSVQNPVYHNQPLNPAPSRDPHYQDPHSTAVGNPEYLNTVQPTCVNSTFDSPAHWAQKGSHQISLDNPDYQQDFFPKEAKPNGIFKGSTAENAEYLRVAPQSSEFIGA

Turning to `C=CC(=O)Nc1ccc(OC)c(Oc2nc(Nc3cnn(CCO)c3)ncc2Cl)c1` [Compound 171, N-(3-((5-chloro-2-((1-(2-hydroxyethyl)-1H-pyrazol-4-yl)amino)pyrimidin-4-yl)oxy)-4-methoxyphenyl)acrylamide], the GI50 in assay [1] and in assay [3] was greater than 10 µM in each case. Besides, in assay [2] (setting [4]), the IC50 is greater than 10 µM.

For `CN(C)C/C=C/C(=O)Nc1cccc(F)c1CNc1nc(Nc2cnn(C)c2)ncc1Cl` [Compound 174, (E)-N-(2-(((5-chloro-2-((1-methyl-1H-pyrazol-4-yl)amino)pyrimidin-4-yl)amino)methyl)-3-fluorophenyl)-4-(dimethylamino)but-2-enamide], the GI50 in assay [1] and in assay [3] was greater than 10 µM throughout. Further, the IC50 in assay [2] (setting [4]) was greater than 10 µM.

Turning to `C=CC(=O)Nc1ccc(C#Cc2ccccc2)c(Nc2nc(Nc3cnn(C)c3)ncc2Cl)c1` [Compound 178, N-[3-({5-chloro-2-[(1-methyl-1H-pyrazol-4-yl)amino]pyrimidin-4-yl}amino)-4-(2-phenylethynyl)phenyl] prop-2-enamide], the GI50 in assay [1] and in assay [3] was greater than 10 µM each time. Further, the IC50 in assay [2] (setting [4]) was found to be 9.97 µM.

On to `C=CC(=O)Nc1ccc(F)c(Nc2nc(NC3CC3)ncc2-c2ccc(C(F)(F)F)cc2)c1` [Compound 180, N-(3-{[2-(cyclopropylamino)-5-[4-(trifluoromethyl)phenyl]pyrimidin-4-yl]amino}-4-fluorophenyl)prop-2-enamide], for which the GI50 in assay [1] and in assay [3] was greater than 10 µM throughout. For the same compound, in assay [2] (setting [4]), the IC50 is greater than 10 µM.

With `C=CC(=O)Nc1ccc(F)c(Nc2nc(NC3CCC3)ncc2-c2ccc(C(F)(F)F)cc2)c1` [Compound 181, N-(3-((2-(cyclobutylamino)-5-(4-(trifluoromethyl)phenyl)pyrimidin-4-yl)amino)-4-fluorophenyl)acrylamide], the GI50 in assay [1] and in assay [3] was greater than 10 µM in each case. Besides, the IC50 in assay [2] (setting [4]) was greater than 10 µM.

Turning to `C=CC(=O)Nc1cccc(Oc2cc(Nc3cnn(C)c3)ncc2-c2ccc(C(F)(F)F)cc2)c1` [Compound 182, N-[3-({2-[(1-methyl-1H-pyrazol-4-yl)amino]-5-[4-(trifluoromethyl)phenyl]pyridin-4-yl}oxy)phenyl]prop-2-enamide; trifluoroacetic acid], the GI50 in assay [1] turned out to be 7.47 µM; in assay [3] it was 9.98 µM. Moreover, the IC50 in assay [2] (setting [4]) amounted to 6.11 µM.

On to `C=CC(=O)Nc1cccc(Oc2nc(Nc3cnn(C)c3)ncc2-c2cncc(C)c2)c1` [Compound 183, N-[3-({2-[(1-methyl-1H-pyrazol-4-yl)amino]-5-(5-methylpyridin-3-yl)pyrimidin-4-yl}oxy)phenyl]prop-2-enamide], for which the GI50 in assay [1] is 0.286 µM; in assay [3], 0.32 µM. Besides, the IC50 in assay [2] (setting [4]) amounted to 0.292 µM.

On to `C=CC(=O)Nc1cccc(Oc2nc(Nc3ccccc3Cl)ncc2-c2ccc(C(F)(F)F)cc2)c1` [Compound 189, N-(3-((2-((2-chlorophenyl)amino)-5-(4-(trifluoromethyl)phenyl)pyrimidin-4-yl)oxy)phenyl)acrylamide], for which the GI50 in assay [1] and in assay [3] was greater than 10 µM in each case. Also, in assay [2] (setting [4]), the IC50 was 8.13 µM.

Regarding `C=CC(=O)Nc1cccc(Oc2nc(Nc3cnn(C)c3)ncc2C2=CCN(C)CC2)c1` [Compound 190, N-(3-((5-(1-methyl-1,2,3,6-tetrahydropyridin-4-yl)-2-((1-methyl-1H-pyrazol-4-yl)amino)pyrimidin-4-yl)oxy)phenyl)acrylamide], the GI50 came to 9.04 µM in assay [1] and 8.86 µM in assay [3]. In addition, in assay [2] (setting [4]), the IC50 came to 6.76 µM.

Consider `C=CC(=O)Nc1cccc(Oc2nc(Nc3ccc(N4CCN(C)CC4)cc3OC)ncc2-c2ccc(C(F)(F)F)cc2)c1` [Compound 191, N-(3-((2-((2-methoxy-4-(4-methylpiperazin-1-yl)phenyl)amino)-5-(4-(trifluoromethyl)phenyl)pyrimidin-4-yl)oxy)phenyl)acrylamide], for which the GI50 in assay [1] was 9.65 µM; in assay [3] it was greater than 10 µM. Moreover, in assay [2] (setting [4]), the IC50 amounted to 0.898 µM.

For the compound `C=CC(=O)Nc1cccc(Oc2nc(Nc3cnn(C)c3)ncc2C2=CCOCC2)c1` [Compound 192, N-(3-((5-(3,6-dihydro-2H-pyran-4-yl)-2-((1-methyl-1H-pyrazol-4-yl)amino)pyrimidin-4-yl)oxy)phenyl)acrylamide], the figures for the GI50 in assay [1] and in assay [3] were 0.241 µM and 0.267 µM, respectively. Further, the IC50 in assay [2] (setting [4]) is 0.258 µM.

For `C=CC(=O)Nc1cccc(Oc2nc(Nc3ccccc3OC)ncc2-c2ccc(C(F)(F)F)cc2)c1` [Compound 193, N-[3-({2-[(2-methoxyphenyl)amino]-5-[4-(trifluoromethyl)phenyl]pyrimidin-4-yl}oxy)phenyl]prop-2-enamide], the GI50 in assay [1] and in assay [3] was greater than 10 µM throughout. Also, the IC50 in assay [2] (setting [4]) came to 8.76 µM.

On to `C=CC(=O)Nc1cccc(Oc2nc(NC3CC3)ncc2-c2ccc(C(F)(F)F)cc2)c1` [Compound 194, N-(3-((2-(cyclopropylamino)-5-(4-(trifluoromethyl)phenyl)pyrimidin-4-yl)oxy)phenyl)acrylamide], for which the GI50 in assay [1] and in assay [3] was greater than 10 µM in each case. Besides, the IC50 in assay [2] (setting [4]) was greater than 10 µM.

Regarding `C=CC(=O)Nc1ccnc(Nc2nc(Nc3cnn(C)c3)ncc2-c2ccc(C(F)(F)F)cc2)c1` [Compound 196, N-(2-((2-((1-methyl-1H-pyrazol-4-yl)amino)-5-(4-(trifluoromethyl)phenyl)pyrimidin-4-yl)amino)pyridin-4-yl)acrylamide], the GI50 in assay [1] is 8.47 µM; in assay [3], 3.21 µM. Besides, the IC50 in assay [2] (setting [4]) is 7.55 µM.

For `C=CC(=O)Nc1cccc(Nc2nc(Nc3cnn(C)c3)ncc2-c2ccc(C(F)(F)F)cc2)n1` [Compound 197, N-(6-((2-((1-methyl-1H-pyrazol-4-yl)amino)-5-(4-(trifluoromethyl)phenyl)pyrimidin-4-yl)amino)pyridin-2-yl)acrylamide], the GI50 in assay [1] turned out to be 0.448 µM; in assay [3] it was 0.395 µM. Also, the IC50 in assay [2] (setting [4]) came out at 0.373 µM.

Consider `C=CC(=O)Nc1cc(Nc2nc(Nc3cnn(C)c3)ncc2-c2ccc(C(F)(F)F)cc2)c(F)cn1` [Compound 198, N-[5-fluoro-4-({2-[(1-methyl-1H-pyrazol-4-yl)amino]-5-[4-(trifluoromethyl)phenyl]pyrimidin-4-yl}amino)pyridin-2-yl]prop-2-enamide; trifluoroacetic acid], for which the GI50 in assay [1] is 2.64 µM; in assay [3] it was 1.27 µM. Also, in assay [2] (setting [5]), the IC50 turned out to be 2.14 µM.

For the compound `C=CC(=O)Nc1cc(Nc2nc(Nc3cnn(C)c3)ncc2-c2ccc(C(F)(F)F)cc2)ccc1N(C)CCN(C)C` [Compound 199, N-(2-{[2-(dimethylamino)ethyl](methyl)amino}-5-({2-[(1-methyl-1H-pyrazol-4-yl)amino]-5-[4-(trifluoromethyl)phenyl]pyrimidin-4-yl}amino)phenyl)prop-2-enamide], the results for the GI50 in assay [1] and in assay [3] were 0.704 µM and 0.239 µM, respectively. In addition, the IC50 in assay [2] (setting [5]) turned out to be 0.716 µM.

Consider `C=CC(=O)Nc1cc(Nc2nc(Nc3cnn(C)c3)ncc2-c2ccc(C(F)(F)F)cc2)ccn1` [Compound 200, N-(4-((2-((1-methyl-1H-pyrazol-4-yl)amino)-5-(4-(trifluoromethyl)phenyl)pyrimidin-4-yl)amino)pyridin-2-yl)acrylamide], for which the figures for the GI50 in assay [1] and in assay [3] were 2.76 µM and 6.02 µM, respectively. Further, the IC50 in assay [2] (setting [5]) was found to be 1.28 µM.

With `C=CC(=O)Nc1cc(F)cc(Nc2nc(Nc3cnn(C)c3)ncc2-c2ccc(Br)cc2)c1` [Compound 207, N-(3-((5-(4-bromophenyl)-2-((1-methyl-1H-pyrazol-4-yl)amino)pyrimidin-4-yl)amino)-5-fluorophenyl)acrylamide], the GI50 is 0.031 µM in assay [1] and 0.032 µM in assay [3]. The IC50 in assay [2] (setting [5]) amounted to 0.049 µM.

On to `C=CC(=O)Nc1cccc(-n2c3cc(C(F)(F)F)ccc3c3cnc(Nc4cnn(C)c4)nc32)c1` [Compound 209], for which the values for the GI50 in assay [1] and in assay [3] were 9.86 µM and 7.97 µM, respectively. The IC50 in assay [2] (setting [5]) stood at 5.41 µM.

`C=CC(=O)Nc1ccc(F)c(Nc2nc(Nc3cc(C)ns3)ncc2-c2ccc(C(F)(F)F)cc2)c1` [Compound 211, N-[4-fluoro-3-({2-[(3-methyl-1,2-thiazol-5-yl)amino]-5-[4-(trifluoromethyl)phenyl]pyrimidin-4-yl}amino)phenyl]prop-2-enamide]: the GI50 was determined as 0.667 µM in assay [1] and 0.404 µM in assay [3]. For the same compound, the IC50 in assay [2] (setting [5]) came out at 1.6 µM.

Take `C=CC(=O)Nc1ccc(F)c(Nc2nc(Nc3cc(C)sn3)ncc2-c2ccc(C(F)(F)F)cc2)c1` [Compound 212, N-(4-fluoro-3-((2-((5-methylisothiazol-3-yl)amino)-5-(4-(trifluoromethyl)phenyl)pyrimidin-4-yl)amino)phenyl)acrylamide]: the GI50 in assay [1] was determined as 1.57 µM; in assay [3], 0.884 µM. The IC50 in assay [2] (setting [5]) is greater than 10 µM.
